Assay results from ChEMBL document CHEMBL1145708, “Selective cytotoxicity of ginkgetin from Selaginella moellendorffii” (J Nat Prod, 1997).
Values after ≈ are worked out from the molar mass of the structure shown. Active and inactive are the calls of the source. No cut-off for these calls is given here.

How the values were obtained:
OVCAR-3 [1] = experiment: Growth inhibition of human OVCAR-3 cells upto 10 ug/ml after 48 hrs; format: functional, cell-based
OVCAR-3 [2] = experiment: Growth inhibition of human OVCAR-3 cells after 48 hrs; format: functional, cell-based
HeLa = experiment: Growth inhibition of human HeLa cells; format: functional, cell-based
[3] = Growth inhibition of HEK cells; format: cell-based; conditions: human, hek293
HepG2 = experiment: Growth inhibition of human HepG2 cells; format: functional, cell-based

In the case of `O=c1cc(-c2ccc(O)c(-c3c(O)cc(O)c4c(=O)cc(-c5ccc(O)cc5)oc34)c2)oc2cc(O)cc(O)c12`, the Activity (OVCAR-3 [1]) is reported as “inactive”.

With `COc1ccc(-c2cc(=O)c3c(O)cc(O)c(-c4cc(-c5cc(=O)c6c(O)cc(O)cc6o5)ccc4O)c3o2)cc1` the Activity (OVCAR-3 [1]) was “inactive”.

With `COc1ccc(-c2cc(=O)c3c(O)cc(OC)c(-c4cc(-c5cc(=O)c6c(O)cc(OC)cc6o5)ccc4OC)c3o2)cc1` the Activity (OVCAR-3 [1]) was “inactive”.

For `COc1cc(O)c2c(=O)cc(-c3ccc(OC)c(-c4c(O)cc(O)c5c(=O)cc(-c6ccc(O)cc6)oc45)c3)oc2c1` [GINKGETIN], the Activity (OVCAR-3 [2]) was “Dose-dependent effect”, the IC50 (OVCAR-3 [2]; OVCAR-3, 48 h) was 1.8 mg/L (≈ 3.18 µM) and the Activity (HeLa) was “inactive”. The Activity [3] was “Not Active” and the Activity (HepG2) was “inactive”.

For `COc1ccc(-c2cc(=O)c3c(O)cc(OC)c(-c4cc(-c5cc(=O)c6c(O)cc(O)cc6o5)ccc4OC)c3o2)cc1`, the Activity (OVCAR-3 [1]) was “inactive”.
